Values of other authors as cited in publication PMC4629263 (Acta Pharmaceutica Sinica. B, 2015).

Assays:
[1] = mice
[2] = room temperature

SMILES | LD50 [1] [mg/kg] | pKa | Stability in aqueous solution [2]
COc1ccc2c(c1O)-c1c(OC)c(OC)cc3c1[C@H](C2)N(C)CC3 [ICD, Isocorydine] | 32.2 | 7.16 | 
COc1cc(N)c2c(c1O)-c1c(OC)c(OC)cc3c1[C@H](C2)N(C)CC3 [8-amino-isocorydine] |  |  | not stable
